The values below come from patent publication US11221329B2, “Treatment of neurological and neurodevelopmental diseases and disorders associated with aberrant ion channel expression and activity” (LIEBER INSTITUTE FOR BRAIN DEVELOPMENT, priority 2015, dated 2022).

Entries after “also recorded” stand apart in the source; their conditions may differ.

Series [1] deals with AHP currents in EGFP+ cells expressing shCon or shTCF4. Kind of series: Whole-cell voltage-clamp recordings of AHP currents with progressive pharmacological blockade. It counts as cell-based, rat. Here is the method:
(§1) For all experiments, artificial cerebrospinal fluid (ACSF) was oxygenated (95% O2 and 5% CO2) and contained in (in mM): 125 NaCl, 25 NaHCO3, 1.25 NaH2PO4, 3 KCl, 25 dextrose, 1 MgCl2, and 2 CaCl2, pH 7.3. Patch pipettes were fabricated from borosilicate glass (N51A, King Precision Glass, Inc.) to a resistance of 2-5 MΩ. For current- and voltage-clamp measurements, pipettes were filled with (in mM): 125 potassium gluconate, 10 HEPES, 4 Mg-ATP, 0.3 Na-GTP, 0.1 EGTA, 10 phosophocreatine, 0.05% biocytin, adjusted to pH 7.3 with KOH. For all experiments GABAa receptors were blocked with SR-95531 (Gabazine, 5 μM, Ascent Scientific). For AHP current experiments, synaptic currents were blocked with DL-2-amino-5-phosphopentanoic acid (D,L-AP5, 100 μM, Ascent Scientific), 2,3, dioxo-6-nitro-1,2,3,4, tetrahydrobenzo-quinoxaline-7-sulfonamide (NBQX, 10 μM) and SR-95531 (Gabazine, 5 μM, Ascent Scientific). Ca2+-activated currents were blocked with Tetraethylammonium chloride (TEA, 1 mM, Abcam), apamin (100 nM, Abcam), and carbachol (10 μM, Abcam). Current signals were recorded with either a Multiclamp 700A (Molecular Devices) or with an Axopatch 200B amplifier (Molecular Devices) and were filtered at 2 kHz using a built-in Bessel filter and digitized at 10 kHz.

A further series concerns shTCF4 cells. Kind of series: Whole-cell current-clamp recordings (AP spiking, mAHP/sAHP) in shTCF4 (TCF4 knockdown) mPFC layer 2/3 pyramidal neurons, acute brain slices. Particulars: N=8. It counts as cell-based, rat. Here is the method: (§2) Pregnant Wistar rats were obtained from Charles River Laboratories, Inc., maintained by SoBran on a 12-hour light cycle and fed ad libitum. In utero electroporation was performed as previously described (Chen et al., 2014; Maher and Loturco, 2012a). Electroporation was performed on embryonic day 16 (E16) and gestation age was confirmed during surgery. All plasmids were used at a final concentration of 1.5 μg/μl, and the mPFC was targeted for transfection. Pregnant dams were returned to the same housing conditions after recovery from surgery, and after litters were born, transfected rats were used for experiments at days P18-24.
(§3) Acute brain slices were obtained from rats and mice as described previously (Maher and Loturco, 2012b). Briefly, P18-24 male and female animals were deeply anesthetized with isoflurane and transcardially perfused with ice-cold oxygenated (95% O2 and 5% CO2) dissecting buffer containing (in mM): 83 NaCl, 2.5 KCl, 1 NaH2PO4, 26.2 NaHCO3, 22 glucose, 72 sucrose, 0.5 CaCl2, and 3.3 MgCl2. Animals were humanly sacrificed and decapitated and the brains were rapidly removed and immersed in ice-cold oxygenated dissection buffer. Coronal slices (300 μm) were cut using a vibratome (Microm HM650V), incubated in dissection buffer for 30-45 minutes at 34° C., and then stored at room temperature. Slices were visualized using IR differential interference microscopy (DIC) (Olympus BX51WI) and a CCD camera (QICAM, QImaging). Individual layer 2/3 pyramidal cells expressing EGFP in rat brain slices were visualized with epifluorescent illumination and a 43× Olympus LUMPlanFLN (0.8 numerical aperture) objective.
as §1, with “kHz. Voltage signals were filtered at 2 kHz and digitized at 10 kHz. Data were acquired using Axograph on a Dell PC. Data acquisition was terminated when series resistance was >15 MΩ. For voltage clamp recordings, pyramidal cells were held at −60 mV. No holding current was used for current-clamp recordings.” for “kHz.”
(§4) Axograph was used on a Macintosh computer for analysis. To measure spike frequency, EGFP-positive layer 2/3 neurons of the mPFC were injected with a 600 ms depolarizing current pulses ranging from 50 to 500 pA at 50 pA increments with an 10 s inter-trial interval. Each current pulse was measured in triplicate, and the number of resulting APs was averaged. For analysis of fAHP amplitude, the second and third current evoked spikes within the 600 ms pulse were measured. The fAHP potential was measured by subtracting the voltage at the peak of the fAHP from the threshold potential for spike initiation (slope of AP exceeds 50 mV/ms). The mAHP potential was measured at the peak of the AHP that followed the 600 ms current pulse. […]

Another series concerns shCon cells. The series can be described thus: Whole-cell current-clamp recordings (AP spiking, mAHP/sAHP) in shCon (control shRNA) mPFC layer 2/3 pyramidal neurons, acute brain slices. The class given is cell-based, rat. Here is the method:
as §2, §3
as §1, with “kHz. Voltage signals were filtered at 2 kHz and digitized at 10 kHz. Data were acquired using Axograph on a Dell PC. Data acquisition was terminated when series resistance was >15 MΩ. For voltage clamp recordings, pyramidal cells were held at −60 mV. No holding current was used for current-clamp recordings.” for “kHz.”
as §4

Another series addresses KCNQ1 (Homo sapiens, UniProt P51787). Particulars: KCNQ1 antagonist; Towart et al., 2009; cited from earlier work.
A further series concerns TCF4 protein. Kind of series: Western blot of endogenous TCF4 protein after shRNA transfection of rat neuroblastoma cells. Particulars: transfected rat neuroblastoma cells; vs control shRNA; N=4. The class given is cell-based. Here is the method: Rat neuroblastoma cells (B104) were cultured in Dulbecco's modified Eagle medium (DMEM) (Thermo Fisher) supplemented with 10% FBS, 100 U-100 μg/ml Penicillin-Streptomycin, 2 mM L-Glutamine, and 100 μm non-essential amino acids and maintained at 37° C. with 5% CO2. At a confluency of […], cells were co-transfected in 6 well plates using Lipofectamine 3000 (Thermo Fisher) with 0.5 μg PBR-GFP, a puromycin selection plasmid, and 2 μg shRNA or 2 μg CRISPR-Cas9 plasmids according to the manufacturer's protocol. Cells were selected with 500 ng/mL puromycin for 24 hours and were allowed to recover in growth medium lacking penicillin-streptomycin for 48 hours.
Rat neuroblastoma cells were washed in cold PBS, scraped from plates and pelleted by centrifugation at 4000 rpm for 5 minutes at 4° C. […]
30 μg of total protein were used from each sample; protein was subjected to gel electrophoresis using a 4-12% gradient Novex Bis-Tris Bolt SDS-PAGE gel. […] Bound antibody was detected using IRdye donkey anti-goat 680 (1:10,000, Li-Cor) and IRdye donkey anti-rabbit 800 (1:10,000, Li-Cor). Antibody detection and quantification were carried out using the LI-COR Odyssey infrared system and software.
(Immunoblotting shows a protein as a band on a membrane.)

For another series, the system named is TCF4 transcript. The series can be described thus: qRT-PCR of TCF4 transcript after shRNA transfection of rat neuroblastoma cells. Particulars: transfected rat neuroblastoma cells; vs control shRNA; N=4. It counts as cell-based. The text has this:
To measure Tcf4 transcript expression across the lifespan in the rat, three cortical samples per age group, as well as cortical samples extracted from both genotypes of postnatal day 21 (p21) TCF4 mice to measure SCN10a and KCNQ1 expression, were separately flash frozen and homogenized in Trizol (Life Technologies). Aqueous phase was mixed with a 1:1 volume of 70% ethanol prior to purification using RNeasy mini columns treated with DNAse according to manufacturer's protocol (Qiagen). RNA samples were then reverse-transcribed to cDNA using the Quantscript Reverse Transcriptase kit (Qiagen). Amplification of cDNA was performed with iTaq SYBR Green Supermix (Bio-Rad) and TCF4, KCNQ1, and SCN10a primers were designed using with Primer 3 software (http://bioinfo.ut.ee/primer3-0.4.0/). End-point PCR followed by product sequencing, in addition to cDNA dilution series and melt curve analysis were used to verify primer design efficiency and specificity. Real time PCR was performed on the 7900HT Fast Real-Time PCR system (Applied Biosystems) and melt curve analysis was done for absolute quantification of primer efficiency. Data were expressed as fold change of gene of interest normalized to GAPDH expression using 2^delta delta Ct. […]
Background: Quantitative PCR measures a nucleic acid by following its amplification.

For `CC[N+](CC)(CC)CC.[Cl-]` [TEA, Tetraethylammonium chloride], the “effect on the fAHP current” value in series [1] (TEA 1 mM bath application, shCon and shTCF4 cells) is recorded as “blockade of the fAHP current”.
As usually defined, the IC50 is the concentration that inhibits the measured activity by half. In the case of `CC(C)(Oc1ccc(Cl)cc1)C(=O)NC1C2CC3CC1CC(NS(C)(=O)=O)(C3)C2` (stereo not drawn) [JNJ303, 2-(4-Chlorophenoxy)-2-methyl-N-[5-[(methylsulfonyl)amino]tricyclo[3.3.1.13,7]dec-2-yl]-propanamide], the “effect on the frequency of APs generated in response to current injections” value with shTCF4 cells (JNJ303 1 μM, shTCF4 cells, significant for current pulses 250-500 pA, p=0.0084) was “effective at increasing the spiking frequency; also recorded: significantly increased firing frequency”. Moreover, the “amplitude of the sAHP after application” value in the series on shTCF4 cells (JNJ303, shTCF4 cells, before −2.31±0.46 mV, p=0.041) was −1.71±0.33 mV; with shCon cells (JNJ303, before −4.67±0.48 mV, N=9, p=0.20), −4.22±0.57. Moreover, the “amplitude of the mAHP after application” value in the series with shTCF4 cells (JNJ303, shTCF4 cells, before −3.52±0.58 mV, p<0.044) is on record as −2.77±0.36 mV; in the series on shCon cells (JNJ303, before −5.93±0.58 mV, N=9, not significant) it was −5.61±0.74 mV. The “effect on the frequency of APs (spiking)” value in the series with shCon cells (JNJ303, N=8, p=0.11) was “neither UCL2077 (p=0.35) nor JNJ303 (p=0.11) had an effect on spiking”. For the same compound, at KCNQ1, the half-maximal inhibitory concentration (IC50) was 64 nM.
Take `C[N+](C)(C)CCOC(N)=O` [carbachol]: the “effect on action potential frequency” value in the series on shTCF4 cells (carbachol (10 μM) bath application, shTCF4 neurons, 600 ms pulses 50 to 500 pA, p=0.0075) was “effective at rescuing action potential frequency”. Further, the “peak amplitude of the mAHP after application” value is −4.23±0.60 mV in the series on shTCF4 cells (carbachol, shTCF4 cells, before −6.78±0.70, p=0.0051) and −2.32±0.31 mV in the series on shCon cells (carbachol, before −4.21±0.52, N=19, p=0.0008). Besides, the effect on spiking entry in the series on shCon cells (carbachol bath application, effective for current injections 200-500 pA, N=12, p=0.0038) is on record as “increased spiking”. Moreover, the “amplitude of the sAHP after application” value in the series on shCon cells (carbachol, before −3.13±0.45, N=19, p=0.0004) is −1.10±0.32 mV. Moreover, in series [1] (carbachol, shTCF4 cells, average voltage-clamp traces), the “effect on the sAHP (voltage clamp)” value is reported as “block the sAHP”.
In the case of “shTCF4_2: shRNA construct targeting the 3′ UTR of rat TCF4, GTTTCAGCATTCCCAATTA (SEQ ID NO:1) (the letters are possibly those of the target site)”, the “endogenous TCF4 protein (Western blot)” value in the series on TCF4 protein is 36.4±4.3 % of control. The “TCF4 transcript (qRT-PCR)” value in the series with TCF4 transcript is 0.47±0.11 fold change from control.
Regarding “shTCF4: shRNA construct targeting the open reading frame of rat TCF4, AGAAACTAGACGACGACAA (SEQ ID NO:2) (the letters are possibly those of the target site; listed as Homo sapiens)”, the “endogenous TCF4 protein (Western blot)” value in the series with TCF4 protein is on record as 1.9±2.0 % of control. Moreover, the “TCF4 transcript (qRT-PCR)” value in the series on TCF4 transcript was 0.55±0.15 fold change from control.
